Reference: patent US8329644B2, “Lantibiotic-based compounds having antimicrobial activity” (Novacta Biosystems Limited, priority 2007, dated 2012)
In brackets after ≈: the same amount, converted by molar mass.

Key:
S. pneumoniae = assay: MIC susceptibility testing, S. pneumoniae (Brain-Heart-Infusion Broth); format: cell-based, Streptococcus pneumoniae; details: S. pneumoniae R6; Table 2
Protocol: (§1) Susceptibility testing for all aerobic organisms with the exception of Streptococcus pneumoniae was performed by two-fold serial antibiotic dilutions in Mueller-Hinton Broth supplemented with 50 μg/ml Ca^2+ unless otherwise noted. Susceptibility testing for S. pneumoniae was performed by two-fold serial antibiotic dilutions in Brain-Heart-Infusion Broth supplemented with 50 μg/ml Ca^2+ unless otherwise noted. Actively growing broth cultures were diluted to contain […] by adjusting to an OD600 of 0.2-0.3. They were then diluted a further 1:100 in fresh sterile broth. The assays were performed in duplicate in sterile 96-well microtitre plates in a total volume of 200 μl (160 μl broth, 20 μl antimicrobial agent, 20 μl inoculum) in a concentration range from 64 μg/ml to 0.06 μg/ml. […] Clinical isolates of Clostridium difficile were tested in Wilkins-Chalgren Anaerobe Agar under anaerobic conditions. In all cases, vancomycin was used as a reference antibiotic

E. coli = assay: MIC against intestinal flora organisms, E. coli; format: cell-based
Protocol: as §1

S. aureus = assay: MIC susceptibility testing, S. aureus; format: cell-based, Staphyloccus aureus
Protocol: as §1

Bifidobacterium longum = assay: MIC against intestinal flora organisms, Bifidobacterium longum; format: cell-based; details: Bifidobacterium longum NCTC 11818; Table 5
S. oralis = assay: MIC susceptibility testing, S. oralis; format: cell-based; details: S. oralis 7862912.1; Viridans streptococci; Table 3
Protocol: as §1

[1] = tested on: Bifidobacterium adolescentis; assay: MIC against intestinal flora organisms, Bifidobacterium adolescentis; format: cell-based; details: Bifidobacterium adolescentis NCTC 11814; Table 5

In the case of CCC(C)[C@@H]1NC(=O)[C@H](C(C)C)NC(=O)[C@H]2NC(=O)CNC(=O)[C@@H]3CS[C@@H](C)[C@@H](NC(=O)[C@H]4CSC[C@H](N)C(=O)N[C@@H](CO)C(=O)NCC(=O)N[C@@H](Cc5c[nH]c6ccccc56)C(=O)N[C@@H](C(C)C)C(=O)N4)C(=O)N[C@@H](CC(C)C)C(=O)N[C@@H](C(=O)N[C@@H](C(C)CC)C(=O)N[C@@H](CCC(=O)O)C(=O)N3)[C@H](C)SC[C@H](NC1=O)C(=O)N[C@@H](C)C(=O)N[C@H](C(=O)NCCO)C[S+]([O-])[C@H]2C (some centres unmarked) [Compound III, Actagardine N-[2-ethanolamine]monocarboxamide], the MIC (S. pneumoniae) is reported as 4 µg/mL (≈ 2.07 µM), the “Minimal Inhibitory Concentration (MIC)” value (E. coli; E. coli ATCC 25922, Table 5) is reported as greater than 64 µg/mL and the “Minimal Inhibitory Concentration (MIC)” value (E. coli; E. coli DC2 (membrane more susceptible), Table 5, first line) is reported as greater than 64 µg/mL. The “Minimal Inhibitory Concentration (MIC)” value (E. coli; E. coli DC2 (membrane more susceptible), Table 5, second line) was greater than 64 µg/mL, the MIC (S. aureus; S. aureus 2, Vancomycin intermediate, Table 3) was 32 µg/mL (≈ 16.6 µM) and the MIC (S. aureus; S. aureus 26, Vancomycin intermediate, Table 3) was 32 µg/mL (≈ 16.6 µM). For the same compound, the MIC (S. aureus; S. aureus 12232, Methicillin resistant, Table 3) was 8 µg/mL (≈ 4.14 µM), the MIC (S. aureus; S. aureus G15, Methicillin sensitive, Table 3) was greater than 32 µg/mL and the MIC (S. aureus; S. aureus G20, Methicillin sensitive, Table 3) was 32 µg/mL (≈ 16.6 µM). For the same compound, the MIC (S. aureus; S. aureus G22, Methicillin sensitive, Table 3) was 32 µg/mL (≈ 16.6 µM), the MIC (S. aureus; S. aureus G23, Methicillin sensitive, Table 3) was 32 µg/mL (≈ 16.6 µM) and the MIC (S. aureus; S. aureus G28, Methicillin sensitive, Table 3) was 16 µg/mL (≈ 8.28 µM). For the same compound, the MIC (S. aureus; S. aureus G30, Methicillin sensitive, Table 3) was 32 µg/mL (≈ 16.6 µM), the MIC (S. aureus; S. aureus G31, Methicillin sensitive, Table 3) was greater than 32 µg/mL and the MIC (S. aureus; S. aureus G32, Methicillin sensitive, Table 3) was 32 µg/mL (≈ 16.6 µM). For the same compound, the MIC (S. aureus; S. aureus G33, Methicillin sensitive, Table 3) was 32 µg/mL (≈ 16.6 µM), the MIC (S. aureus; S. aureus G35, Methicillin sensitive, Table 3) was greater than 32 µg/mL and the MIC (S. aureus; S. aureus MI, Vancomycin intermediate, Table 3) was 32 µg/mL (≈ 16.6 µM). For the same compound, the MIC (S. aureus; S. aureus Mu3, Vancomycin intermediate, Table 3) was 32 µg/mL (≈ 16.6 µM), the MIC (S. aureus; S. aureus Mu50, Vancomycin intermediate, Table 3) was 32 µg/mL (≈ 16.6 µM) and the MIC (S. aureus; S. aureus NJ, Vancomycin intermediate, Table 3) was greater than 32 µg/mL. For the same compound, the MIC (S. aureus; S. aureus R33, Table 2) was 16 µg/mL (≈ 8.28 µM), the MIC (S. aureus; S. aureus R34, Methicillin resistant, Table 3) was 8 µg/mL (≈ 4.14 µM) and the MIC (S. aureus; S. aureus R36, Methicillin resistant, Table 3) was 16 µg/mL (≈ 8.28 µM). It also gave an MIC (S. aureus; S. aureus R39, Methicillin resistant, Table 3) greater than 32 µg/mL, an MIC (S. aureus; S. aureus R40, Methicillin resistant, Table 3) of 32 µg/mL (≈ 16.6 µM) and an MIC (S. aureus; S. aureus SH1000, Methicillin sensitive, Table 3) of 16 µg/mL (≈ 8.28 µM). The MIC (S. aureus; S. aureus SH1000, Table 2) was 8 µg/mL (≈ 4.14 µM), the MIC (S. aureus; S. aureus V99, Vancomycin intermediate, Table 3) was 16 µg/mL (≈ 8.28 µM) and the MIC (S. aureus; S. aureus W71, Methicillin resistant, Table 3) was 32 µg/mL (≈ 16.6 µM). It also gave an MIC (S. aureus; S. aureus W74, Methicillin resistant, Table 3) of 32 µg/mL (≈ 16.6 µM), an MIC (S. aureus; S. aureus W96, Methicillin resistant, Table 3) greater than 32 µg/mL and an MIC (S. aureus; S. aureus W97, Methicillin resistant, Table 3) greater than 32 µg/mL. The MIC (S. aureus; S. aureus W98, Methicillin resistant, Table 3) was 32 µg/mL (≈ 16.6 µM), the MIC (S. aureus; S. aureus W99, Methicillin resistant, Table 3) was 32 µg/mL (≈ 16.6 µM) and the “Minimal Inhibitory Concentration (MIC)” value (Bifidobacterium longum) was 32 µg/mL. The MIC (S. oralis) was 8 µg/mL (≈ 4.14 µM) and the “Minimal Inhibitory Concentration (MIC)” value [1] was 32 µg/mL.
